Among the data in ChEMBL document CHEMBL1201862, “PubChem BioAssay data set” (2004) are IC50, EC50 and AC50 values, retold here.

Activity calls are given as the source filed them. Where only a bound is given, the exact number is not on record here.

Assay [1] addresses Fructose-bisphosphate aldolase (Mycobacterium tuberculosis, UniProt P9WQA3). Nature of the assay: Fluorescence-based biochemical high throughput dose response assay for inhibitors of the fructose-bisphosphate aldolase (FBA) of M. tuberculosis. It is filed as functional.
The target of the next assay is Mu-type opioid receptor (Homo sapiens, UniProt P35372). It counts as functional, cell-based.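 Note: U2OS cells with beta-arrestin recruitment to OPRM1 by beta-gal complementation.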
The target in assay [2] is 5-hydroxytryptamine receptor 2A (Mus musculus, UniProt P35363). It is filed as functional, cell-based.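 Note: CHO-K1 cells with tagged receptor and beta-arrestin; agonist potency measured as compound-induced activation of the receptor.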
Another assay relates to Vero. Kind of assay: Vero cell toxicity, dose response, cytotoxicity control, plate reader, cherry-pick samples (AID 687020). It counts as functional, cell-based. To be noted: Chlorocebus sabaeus.
A further assay concerns the target Major prion protein (Homo sapiens, UniProt P04156). It is filed as functional, cell-based.
In assay [3] the target is 1-phosphatidylinositol 4,5-bisphosphate phosphodiesterase gamma-1 (Homo sapiens, UniProt P19174). Nature of the assay: Counterscreen for inhibitors of phospholipase C isozymes (PLC-B3): Fluorescence-based biochemical high throughput dose response assay to identify inhibitors of phospholipase C isozymes (PLC-gamma1).
Assay [4] concerns the target 1-phosphatidylinositol 4,5-bisphosphate phosphodiesterase beta-3 (Homo sapiens, UniProt Q01970). Kind of assay: Fluorescence-based biochemical high throughput dose response assay to identify inhibitors of phospholipase C isozymes (PLC-B3).
The nature of assay [5]: off-target signal loss in HeLa-CEM21 co-culture – HeLa F-luc CTL cells, cherry-picked, counter-screen for HIV-1 Env fusion inhibitor project, dose response (AID 652040).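 Note: potency for signal decrease marking cytotoxic or nonspecific inhibition.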 It counts as functional, cell-based. (In general: A counterscreen serves to expose hits that act by an unwanted route or on another target.)
Assay [6] is described as follows: inhibitors of clade B AD8 Env fusion, dose response, cell-based, cherry-pick (AID 652062).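 Note: luciferase signal from cell-cell fusion driven by HIV-1 clade B AD8 Env; potency is for inhibitors of fusion seen as a drop in luminescence.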 It counts as functional.
Assay [7] can be described thus: inhibitors of HIV Env-driven cell fusion, dose response, cherry-pick (AID 652057). It counts as functional, cell-based.
Assay [8] can be described thus: ZM109 Env clade C HIV-1 fusion inhibitors, dose response, HeLa effector, CEM target cells, luciferase, cherry-pick (AID 652058). It is filed as functional, cell-based.
The target in assay [9] is T1, Zinc finger protein mex-5 (Caenorhabditis elegans, UniProt Q9XUB2).
T1 sequence (Q9XUB2 whole entry): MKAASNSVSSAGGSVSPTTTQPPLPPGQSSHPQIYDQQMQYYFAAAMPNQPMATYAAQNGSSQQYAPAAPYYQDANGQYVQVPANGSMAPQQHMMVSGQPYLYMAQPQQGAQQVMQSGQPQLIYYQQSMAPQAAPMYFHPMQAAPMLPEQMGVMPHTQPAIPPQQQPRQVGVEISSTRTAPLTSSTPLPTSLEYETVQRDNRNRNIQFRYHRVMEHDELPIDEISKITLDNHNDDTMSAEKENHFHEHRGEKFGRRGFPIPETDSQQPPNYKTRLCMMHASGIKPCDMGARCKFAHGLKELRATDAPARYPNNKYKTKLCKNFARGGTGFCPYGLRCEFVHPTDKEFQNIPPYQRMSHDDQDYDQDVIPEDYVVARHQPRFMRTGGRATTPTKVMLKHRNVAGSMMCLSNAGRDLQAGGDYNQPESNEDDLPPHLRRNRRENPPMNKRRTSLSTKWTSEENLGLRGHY
Kind of assay: MEX-5/TCR-2 RNA interaction inhibitors, dose response, biochemical, C. elegans, fluorescence polarization (AID 1960). In general terms: Fluorescence polarisation rises when a labelled molecule tumbles more slowly, as on binding a larger partner.

For the next assay, the target named is Kallikrein-7 (Homo sapiens, UniProt P49862). Nature of the assay: Fluorescence Intensity-based biochemical primary high throughput dose response assay to identify activators of kallikrein-7 (K7) zymogen.
The nature of assay [10]: EDANS-DABCYL fluorescence interference, concentration series, dose response, artefact control for kallikrein-7 zymogen activator project, biochemical, fluorescence intensity, triplicate (AID 720493).
Assay [11] addresses T2, RNA-binding protein pos-1 (Caenorhabditis elegans, UniProt G5EF15).
T2 sequence (G5EF15 whole entry): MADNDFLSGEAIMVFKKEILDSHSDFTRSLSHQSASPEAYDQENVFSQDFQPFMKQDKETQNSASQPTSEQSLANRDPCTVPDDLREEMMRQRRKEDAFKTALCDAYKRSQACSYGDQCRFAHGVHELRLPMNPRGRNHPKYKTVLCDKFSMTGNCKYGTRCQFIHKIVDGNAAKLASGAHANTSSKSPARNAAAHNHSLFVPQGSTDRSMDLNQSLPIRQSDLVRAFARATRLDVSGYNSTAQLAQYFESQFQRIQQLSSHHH
Kind of assay: inhibitors of POS-1/mex-3 RNA binding, dose response, biochemical, fluorescence polarization (AID 1964).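 Note: purified POS-1 fused to maltose binding protein made in E. coli; potency of compounds blocking POS-1 binding to fluorescent RNA.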

Assay [12] in a line: non-specific cell cytotoxicity, dose response, cytotoxicity control for PAX8 inhibitor project, plate reader, dry powder samples (AID 743021). It is filed as functional, cell-based.
In assay [13] the target is T3, Hepatocyte nuclear factor 4-alpha (Homo sapiens, UniProt P41235).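 Note: biochemical luminescence-based dose-response counterscreen measuring inhibition of HNF4 dimerization, run alongside a screen for blockers of ABHD5–perilipin-5 interaction; split luciferase complementation of HNF4 fusion proteins in cell lysate measuring dimerization.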
T3 sequence (P41235 whole entry): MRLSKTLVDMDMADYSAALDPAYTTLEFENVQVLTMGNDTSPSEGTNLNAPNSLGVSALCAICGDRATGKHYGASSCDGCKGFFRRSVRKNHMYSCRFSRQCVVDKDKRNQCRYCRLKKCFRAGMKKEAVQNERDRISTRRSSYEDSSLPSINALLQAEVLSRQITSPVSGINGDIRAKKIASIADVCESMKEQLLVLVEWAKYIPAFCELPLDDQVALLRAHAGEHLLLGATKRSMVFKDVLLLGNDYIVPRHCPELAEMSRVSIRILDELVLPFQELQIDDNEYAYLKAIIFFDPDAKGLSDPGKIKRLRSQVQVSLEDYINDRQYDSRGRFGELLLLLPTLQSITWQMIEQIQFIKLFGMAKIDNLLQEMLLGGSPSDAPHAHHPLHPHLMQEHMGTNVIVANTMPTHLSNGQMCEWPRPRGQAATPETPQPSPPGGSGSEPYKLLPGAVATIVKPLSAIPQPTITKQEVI
It is filed as functional, cell-based.

The target of a further assay is Paired box protein Pax-8 (Homo sapiens, UniProt Q06710). Nature of the assay: inhibitors of PAX8-driven TPO luciferase reporter, dose response, RMG-I cells, cherry-pick (AID 687027).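 Note: luciferase reporter driven by Pax8 target thyroperoxidase promoter measured by SteadyGlo luminescence.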 It counts as functional, cell-based. On the technique in general: A reporter such as luciferase makes a cellular process visible.
The nature of assay [14]: inhibitors of PGC1a acetylation in cells, dose response, cell-based, cherry-picked samples (AID 720514).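 Note: potency may reflect raised or lowered acetylation signal.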 It counts as functional.

`CCN(CC)CCCNC(=O)CCC(=O)Nc1ccc2nc(N3CCC(C)CC3)cc(C)c2c1`: the IC50 (in general, the concentration that inhibits the measured activity by half) in assay [1] is > 0.37 µM (active).

As for `O=C(c1ccco1)N1CCN(CC2CC3C=CC2C3)CC1` (stereo not given), the EC50 (in general, the concentration at which the effect is half-maximal) is 92.4 µM (inactive) at Mu-type opioid receptor and 2.96 µM (active) in assay [2].

For the molecule `CC1CCOC(c2coc3ccccc3c2=O)O1` (stereo not given), in the assay on Vero, the AC50 – broadly, the concentration giving half of the maximal activity seen – was 24.2 µM (active).

Take `CC(=O)Nc1ccc2nc(C)c(CC=C(Cl)Cl)c(O)c2c1`: the IC50 in the assay “cells” is > 138 µM (inactive); on Major prion protein, 10.2 µM (inactive).

With `O=C(CCNc1cc(Cl)cc(Cl)c1)c1cccs1`, the IC50 in assay [3] and in [4] was > 123 µM (inactive) throughout.

As to `CCC(NS(=O)(=O)c1c(C)nc(O)nc1O)C12CC3CC(CC(C3)C1)C2` (stereo not given), the concentration at half-maximal activity (AC50) in [5] was 11.8 µM (active); in [6], 7.16 µM (active); in assay [7], 7.48 µM (active); in assay [8], 7.79 µM (active).

Regarding `Cc1ccc(/C=C2\Oc3c(ccc(O)c3CN3CCN(C)CC3)C2=O)cc1`, the half-maximal effective concentration (EC50) in assay [9] was 153 µM (active); on Kallikrein-7, 12.5 µM (inactive); in assay [10] it was > 7.73 µM (active); in assay [11], 43.7 µM (active).

On to `C#CCN(C[C@@H]1[C@@H](OC(=O)NCCCCCC)[C@@H](OC(=O)NCCCCCC)Cn2c(=O)ccc(=O)n21)S(=O)(=O)c1ccc(C)cc1`, for which the AC50 in assay [12] was 38.3 µM (active); at Paired box protein Pax-8, 4.18 µM (active); in [14], 4.88 µM (active). For the same molecule, the IC50 in assay [13] was 34.7 µM (inactive).
